Measured values published in paper PMC10140581, “Development and evaluation of novel artemisinin-isatin hybrids with potential anti-leukemic cytotoxicity” (Frontiers in Oncology, 2023).
pIC50: −log10 of the molar value.

What was measured:
[1] = test system: CCRF-CEM human acute lymphoblastic leukemia cell line; experiment: MTT antiproliferative assay, CCRF-CEM; format: cell-based
Procedure: (§1) The antiproliferative activity and cytotoxicity of ester tethered ART-isatin hybrids 7a-u against human myeloid leukemia cell lines (K562 CM-0130 purchased from Procell and K562/ADR AW-CELLS-H0187 purchased from AnWei-sci), human acute lymphoblastic leukemia cell line (CCRF-CEM CL-0058 purchased from Procell) as well as cytotoxicity towards normal human peripheral blood mononuclear cells (PBMCs 230470, purchased from Mingzhoubio) were assessed by 3-(4,5-dimethylthiazol-2-yl)-2,5-diphenyltetrazolium bromide (MTT) assay.
(§2) Medium in wells was replaced after 24 h with fresh medium containing the tested compounds in DMSO (1% v/v) and incubated for 72 h. […] 3-(4,5-dimethyl-2-thiazolyl)-2,5-diphenyltetrazolium bromide (MTT) solution (10 µL) was added to each well, and the cultures were incubated for an additional 4 h at 37°C. A further 100 µL of […] was added and incubation continued overnight at 37°C. The absorbance at 540 nm was determined in each well with a 96-well plate reader. The growth of the treated cells was compared with that of untreated cells. Half maximum inhibitory concentration (IC50) is a measurement of the efficacy of a substance in inhibiting a specific biological or biochemical process. […] In this experiment, the dose-response curve constructed by Spss22.0 software was used to calculate the inhibitory effect of the hybrid (0 μM-100 μM) on the activity of leukemia cell lines. Each experiment was performed independently in triplicate with three tests in each, and results were reported as mean inhibitory concentration IC50.

[2] = test system: K562 human myeloid leukemia cell line; experiment: MTT antiproliferative assay, K562; format: cell-based
Procedure: as §1, §2

[3] = test system: K562/ADR human myeloid leukemia cell line; experiment: MTT antiproliferative assay, K562/ADR; format: cell-based
Procedure: as §1, with “assay. The antiproliferative activity was expressed by half maximal inhibitory concentration (IC50) values, which were presented in Table 2 .” for “assay.”
as §2

[4] = MTT cytotoxicity assay, normal PBMCs; format: cell-based, human; conditions: normal peripheral blood mononuclear cells (PBMCs); MTT assay, normal human PBMCs
Procedure: as §1

Structure (SMILES) | pIC50 [1] | pIC50 [2] | pIC50 [3] | pIC50 [4]
C[C@@H]1CC[C@H]2[C@@H](C)C(=O)O[C@@H]3O[C@@]4(C)CC[C@@H]1[C@]32OO4 [ART, Artemisinin] | < 4.00 | < 4.00 | < 4.00 | 
O=C(CCCCCCC(=O)Nc1ccccc1)NO [Vorinostat, reference compound] |  |  | 5.66 | 
C[C@@H]1CC[C@H]2[C@@H](C)C(OC(=O)CN3C(=O)C(=NOCc4ccccc4)c4ccccc43)O[C@@H]3O[C@@]4(C)CC[C@@H]1[C@]32OO4 (stereo partly drawn) [hybrid 7b, (3R,5aS,6R,8aS,9R,12R,12aR)-3,6,9-trimethyldecahydro-12H-3,12-epoxy[1,2]dioxepino[4,3-i]isochromen-10-yl 2-(3-[(benzyloxy)imino)-2-oxoindolin-1-yl]acetate] | < 4.00 | < 4.00 | < 4.00 | 
CON=C1C(=O)N(CC(=O)OC2O[C@@H]3O[C@@]4(C)CC[C@H]5[C@H](C)CC[C@@H]([C@H]2C)[C@@]35OO4)c2ccc(F)cc21 (stereo partly drawn) [hybrid 7c, (3R,5aS,6R,8aS,9R,12R,12aR)-3,6,9-trimethyldecahydro-12H-3,12-epoxy[1,2]dioxepino[4,3-i]isochromen-10-yl 2-(5-fluoro-3-(methoxyimino)-2-oxoindolin-1-yl)acetate] | 4.53 | < 4.00 | < 4.00 | < 4.00
C[C@@H]1CC[C@H]2[C@@H](C)C(OC(=O)CCN3C(=O)C(=NOCc4ccccc4)c4ccccc43)O[C@@H]3O[C@@]4(C)CC[C@@H]1[C@]32OO4 (stereo partly drawn) [hybrid 7g, (3R,5aS,6R,8aS,9R,12R,12aR)-3,6,9-trimethyldecahydro-12H-3,12-epoxy[1,2]dioxepino[4,3-i]isochromen-10-yl 3-(3-[(benzyloxy)imino)-2-oxoindolin-1-yl]propanoate] | < 4.00 | < 4.00 | < 4.00 | 
CCON=C1C(=O)N(CCC(=O)OC2O[C@@H]3O[C@@]4(C)CC[C@H]5[C@H](C)CC[C@@H]([C@H]2C)[C@@]35OO4)c2ccc(F)cc21 (stereo partly drawn) [hybrid 7i, (3R,5aS,6R,8aS,9R,12R,12aR)-3,6,9-trimethyldecahydro-12H-3,12-epoxy[1,2]dioxepino[4,3-i]isochromen-10-yl 3-(3-(ethoxyimino)-5-fluoro-2-oxoindolin-1-yl)propanoate] | < 4.00 | 4.80 | < 4.00 | 
C[C@@H]1CC[C@H]2[C@@H](C)C(OC(=O)CCN3C(=O)C(=NOCc4ccccc4)c4cc(F)ccc43)O[C@@H]3O[C@@]4(C)CC[C@@H]1[C@]32OO4 (stereo partly drawn) [hybrid 7j, (3R,5aS,6R,8aS,9R,12R,12aR)-3,6,9-trimethyldecahydro-12H-3,12-epoxy[1,2]dioxepino[4,3-i]isochromen-10-yl 3-(3-[(benzyloxy)imino)-5-fluoro-2-oxoindolin-1-yl]propanoate] | < 4.00 | < 4.00 | 5.42 | 
CCON=C1C(=O)N(CCCC(=O)OC2O[C@@H]3O[C@@]4(C)CC[C@H]5[C@H](C)CC[C@@H]([C@H]2C)[C@@]35OO4)c2ccccc21 (stereo partly drawn) [hybrid 7n, (3R,5aS,6R,8aS,9R,12R,12aR)-3,6,9-trimethyldecahydro-12H-3,12-epoxy[1,2]dioxepino[4,3-i]isochromen-10-yl 4-(3-(ethoxyimino)-2-oxoindolin-1-yl)butanoate] | < 4.00 | < 4.00 | < 4.00 | 
C[C@@H]1CC[C@H]2[C@@H](C)C(OC(=O)CCCN3C(=O)C(=NOCc4ccccc4)c4ccccc43)O[C@@H]3O[C@@]4(C)CC[C@@H]1[C@]32OO4 (stereo partly drawn) [hybrid 7o, (3R,5aS,6R,8aS,9R,12R,12aR)-3,6,9-trimethyldecahydro-12H-3,12-epoxy[1,2]dioxepino[4,3-i]isochromen-10-yl 4-(3-[(benzyloxy)imino)-2-oxoindolin-1-yl]butanoate] | < 4.00 | < 4.00 | < 4.00 | 
